The text below walks through data of ChEMBL document CHEMBL1201862, “PubChem BioAssay data set” (2004).

Each structure is given as a SMILES string. Activity calls are given as the source filed them.

A short description of test [1]: HEp-2 cell cytotoxicity, dose response, cytotoxicity control for RSV inhibitor project, HTS (AID 2410). It counts as functional. Particulars: human respiratory syncytial virus.
The nature of test [2]: Luminescence Cell-Based Dose Retest to Confirm Inhibitors of Cancer Stem Cells. [Related pubchem assays (depositor defined):AID2717, AID2721]. The format is functional. The conditions noted are these: Homo sapiens.
In the next test the test system is H4. Nature of the test: Luminescence Cell-Based Dose Response HTS to Identify Activators of 5'UTR Stem-Loop Driven Prion Protein mRNA Translation in H4 Neuroglioblastoma Cells. [Related pubchem assays: 1829 (Project Summary), 1814 (Primary HTS)]. It counts as functional. The conditions noted are these: Homo sapiens.
The nature of test [3]: P. falciparum Dd2 growth inhibitors, dose response, SYBR Green, cherry-picked samples (AID 1159567). It counts as functional, cell-based.
Test [4] deals with Luciferin 4-monooxygenase (Photinus pyralis, UniProt P08659). Nature of the test: firefly luciferase enzyme inhibitors, dose response, biochemical, luminescence (AID 1891).
Test [5] can be described thus: Luminescence Cell-Based Dose Confirmation HTS to Identify Inhibitors of Platelet Dense Granule Release. [Related pubchem assays: 1663 (Primary HTS), 1678 (Summary of Project)]. The format is functional.
Test [6] deals with T1, Rac GTPase-activating protein 1 (Homo sapiens, UniProt Q9H0H5).
T1 sequence (Q9H0H5 whole entry): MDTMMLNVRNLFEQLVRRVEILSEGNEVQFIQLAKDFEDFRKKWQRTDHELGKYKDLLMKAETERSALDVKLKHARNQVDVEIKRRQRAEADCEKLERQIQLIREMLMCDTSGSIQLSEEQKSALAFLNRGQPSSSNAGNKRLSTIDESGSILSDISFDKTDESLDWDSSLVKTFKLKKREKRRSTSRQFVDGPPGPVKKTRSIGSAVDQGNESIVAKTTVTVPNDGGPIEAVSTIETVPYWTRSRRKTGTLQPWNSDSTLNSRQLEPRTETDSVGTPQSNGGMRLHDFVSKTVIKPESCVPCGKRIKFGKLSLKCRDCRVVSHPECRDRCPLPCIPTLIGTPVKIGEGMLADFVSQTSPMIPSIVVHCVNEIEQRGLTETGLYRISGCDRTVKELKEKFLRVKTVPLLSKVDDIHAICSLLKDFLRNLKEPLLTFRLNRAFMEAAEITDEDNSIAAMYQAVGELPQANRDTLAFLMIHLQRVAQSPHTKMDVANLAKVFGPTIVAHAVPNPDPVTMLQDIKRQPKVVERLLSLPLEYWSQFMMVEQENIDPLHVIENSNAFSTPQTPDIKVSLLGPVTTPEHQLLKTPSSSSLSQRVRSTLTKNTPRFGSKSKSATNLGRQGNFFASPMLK
Nature of the test: MgcRacGAP GTPase-activating activity inhibitors, confirmation, biochemical, ADP Hunter fluorescence, primary and confirmatory (AID 624330). It counts as functional.

The next test deals with INS1. Nature of the test: beta cell apoptosis inhibitors, cytokine rescue, dose response, luminescence, retest (AID 449756).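 Note: cell death triggered by IL-1 beta plus TNF-alpha plus IFN-gamma mixture; protective hits raise ATP signal compared with cytokine alone wells.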 The format is functional, cell-based. The conditions noted are these: Rattus norvegicus.
Another test concerns the target Nonstructural protein 1 (Influenza A virus, UniProt Q194T2). The format is functional, Influenza A virus (A/California/07/2009(H1N1)).
Test [7] can be described thus: cytotoxicity toward NIH3T3 fibroblasts, dose response, counter-screen, cell-based, ATP luminescence, mouse fibroblasts (AID 2010).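 Note: cells exposed to compound for about 90 hours before reading.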 It counts as functional. In general terms: Counterscreens check selectivity or assay interference.
Test [8] can be described thus: Luminescence Cell-Based Dose Response HTS to Identify Inhibitors of 5'UTR Stem-Loop Driven Prion Protein mRNA Translation in H4 Neuroglioblastoma Cells. [Related pubchem assays: 1827 (Project Summary), 1813 (Primary HTS)]. The format is functional.
Test [9] can be described thus: inhibitors of intracellular T. cruzi replication, confirmation, NIH3T3 host cells, beta-gal luminescence (AID 2044).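 Note: intracellular parasites grown in NIH/3T3 mouse fibroblasts as host cells; luminescent beta-galactosidase reporter signal from transgenic T. cruzi replicating inside host cells; inhibitors lower the luminescence signal.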 It counts as functional, cell-based.
The nature of test [10]: inhibitors of SNCA 5'UTR-driven reporter translation, confirmation, H4 neuroglioma cells, luminescence (AID 1988). The format is functional, cell-based.
A short description of test [11]: inhibitors of firefly luciferase expression or activity, dose response, H4 neuroglioma cells, luminescence (AID 1990). It counts as functional, cell-based.
The target of another test is T2, Protein RecA (Mycobacterium tuberculosis, UniProt P9WHJ3).
T2 sequence (P9WHJ3 whole entry): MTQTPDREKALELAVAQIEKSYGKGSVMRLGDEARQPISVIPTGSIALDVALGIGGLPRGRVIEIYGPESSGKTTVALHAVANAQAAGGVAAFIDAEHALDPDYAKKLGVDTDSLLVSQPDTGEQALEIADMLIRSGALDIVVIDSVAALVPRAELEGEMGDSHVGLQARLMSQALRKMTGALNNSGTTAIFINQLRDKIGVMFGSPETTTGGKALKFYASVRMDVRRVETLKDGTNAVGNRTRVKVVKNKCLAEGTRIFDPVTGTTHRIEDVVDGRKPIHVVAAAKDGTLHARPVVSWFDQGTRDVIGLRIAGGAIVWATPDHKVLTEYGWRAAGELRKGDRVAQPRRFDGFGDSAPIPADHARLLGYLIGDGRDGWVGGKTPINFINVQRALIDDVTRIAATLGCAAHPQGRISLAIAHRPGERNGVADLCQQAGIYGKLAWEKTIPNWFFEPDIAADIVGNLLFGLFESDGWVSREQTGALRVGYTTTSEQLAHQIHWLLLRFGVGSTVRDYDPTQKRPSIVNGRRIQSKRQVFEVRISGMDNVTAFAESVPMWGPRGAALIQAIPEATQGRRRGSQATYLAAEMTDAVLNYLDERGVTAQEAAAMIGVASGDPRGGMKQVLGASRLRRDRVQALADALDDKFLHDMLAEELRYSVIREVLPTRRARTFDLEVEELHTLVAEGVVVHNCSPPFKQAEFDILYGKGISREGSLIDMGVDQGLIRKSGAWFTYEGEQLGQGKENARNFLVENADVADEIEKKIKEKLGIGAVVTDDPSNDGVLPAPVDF
Nature of the test: Fluorescence Cell-Free Homogeneous Dose Retest to Identify Inhibitors of RecA-Intein Splicing Activity. [Related pubchem assays (depositor defined):AID2097, AID2223, AID489010, AID492950]. It counts as functional.

In test [12] the target is T3, Replicative DNA helicase DnaB (Mycobacterium tuberculosis, UniProt P9WMR3).
T3 sequence (P9WMR3 whole entry): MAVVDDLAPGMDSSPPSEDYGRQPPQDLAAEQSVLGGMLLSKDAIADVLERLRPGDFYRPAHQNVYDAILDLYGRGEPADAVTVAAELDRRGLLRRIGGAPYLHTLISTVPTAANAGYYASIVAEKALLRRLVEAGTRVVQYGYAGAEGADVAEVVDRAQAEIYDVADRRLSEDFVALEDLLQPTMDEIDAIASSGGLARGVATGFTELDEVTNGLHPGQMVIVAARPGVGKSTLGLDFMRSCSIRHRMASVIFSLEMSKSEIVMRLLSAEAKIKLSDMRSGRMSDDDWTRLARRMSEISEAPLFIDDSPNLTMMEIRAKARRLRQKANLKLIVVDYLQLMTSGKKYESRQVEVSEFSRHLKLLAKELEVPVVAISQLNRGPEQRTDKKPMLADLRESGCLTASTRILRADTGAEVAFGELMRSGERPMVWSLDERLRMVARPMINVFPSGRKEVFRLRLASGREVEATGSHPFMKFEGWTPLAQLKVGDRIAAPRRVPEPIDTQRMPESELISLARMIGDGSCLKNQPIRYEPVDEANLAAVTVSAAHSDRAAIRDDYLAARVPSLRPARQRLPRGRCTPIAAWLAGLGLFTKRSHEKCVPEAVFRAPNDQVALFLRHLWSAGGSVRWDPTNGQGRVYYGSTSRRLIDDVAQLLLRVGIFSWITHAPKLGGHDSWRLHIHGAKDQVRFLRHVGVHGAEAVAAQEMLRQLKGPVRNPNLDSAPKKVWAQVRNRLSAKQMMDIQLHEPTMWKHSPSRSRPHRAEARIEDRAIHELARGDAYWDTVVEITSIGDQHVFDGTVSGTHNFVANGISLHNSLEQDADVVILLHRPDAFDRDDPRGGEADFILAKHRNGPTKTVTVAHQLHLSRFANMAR
Nature of the test: DnaB intein splicing inhibitors, dose response, biochemical, cell-free fluorescence (AID 449749). The format is functional.

Chain of Luciferin 4-monooxygenase (P08659 whole entry): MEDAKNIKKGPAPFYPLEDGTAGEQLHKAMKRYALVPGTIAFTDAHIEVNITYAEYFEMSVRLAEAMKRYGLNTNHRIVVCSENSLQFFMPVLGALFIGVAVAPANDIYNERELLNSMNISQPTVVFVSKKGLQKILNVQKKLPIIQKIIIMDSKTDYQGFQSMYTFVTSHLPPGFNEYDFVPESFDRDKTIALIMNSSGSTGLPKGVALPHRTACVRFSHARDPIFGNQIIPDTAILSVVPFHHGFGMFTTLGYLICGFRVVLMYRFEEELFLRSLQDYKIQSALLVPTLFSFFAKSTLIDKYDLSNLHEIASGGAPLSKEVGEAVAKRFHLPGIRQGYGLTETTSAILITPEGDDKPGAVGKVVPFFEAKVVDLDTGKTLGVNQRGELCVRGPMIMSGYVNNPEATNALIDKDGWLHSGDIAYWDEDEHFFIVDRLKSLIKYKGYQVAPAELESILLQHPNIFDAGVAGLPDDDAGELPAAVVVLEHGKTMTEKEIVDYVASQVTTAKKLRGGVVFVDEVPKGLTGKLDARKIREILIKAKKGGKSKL
Chain of Nonstructural protein 1 (Q194T2 whole entry): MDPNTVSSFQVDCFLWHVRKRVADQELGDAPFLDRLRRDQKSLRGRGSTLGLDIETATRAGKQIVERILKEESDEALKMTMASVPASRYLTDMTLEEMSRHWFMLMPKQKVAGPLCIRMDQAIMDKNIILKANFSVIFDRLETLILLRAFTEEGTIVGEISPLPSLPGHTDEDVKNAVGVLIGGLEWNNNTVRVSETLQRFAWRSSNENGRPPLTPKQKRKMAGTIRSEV

With `Cc1ccnc(Nc2nc(-c3ccc(O)cc3O)cs2)c1`, in test [1], the CC50 is 25.8 µM (active). Besides, the AC50 in [2] was 12.3 µM (active).
With `O=C(N/N=C/c1sc(=O)n(-c2ccccc2)c1Cl)c1ccccc1`, the EC50 in the test on H4 is 34.9 µM (inconclusive).
As to `Cc1ccccc1-c1ccc([C@H]2[C@H]3CNC[C@@H]2N3S(=O)(=O)c2cccc(F)c2)cc1`, the AC50 in test [3] was 35.7 µM (active).
Still for that read-out and setting: the value for `CCC(=O)Nc1ccc2c(c1)OC[C@H](C)N(Cc1ccccn1)C[C@H](C)[C@H](OC)CN(C)C2=O` was 15.3 µM (active); that for `COc1cccc(-c2ccc([C@H]3[C@H](CO)N4CCCCN(CC5CC5)C[C@@H]34)cc2)c1` was 5.84 µM (active).
Take `COc1ccccc1/C=N/Nc1nccnc1Cl`: the EC50 in [4] is 12.3 µM (active); in [5], 5.37 µM (active).
As for `Cc1ccc(C(C)(C)C)cc1S(=O)(=O)N1CCC(C(=O)N2CCN(c3ccc(O)cc3)CC2)CC1`, in test [6], the IC50 is 99.1 µM (active).
In the case of `Cc1occc1C(=O)Nc1cc(C(C)(C)C)on1`, the half-maximal effective concentration (EC50) was 2.78 µM (active) in [4] and 3.46 µM (active) in test [5].
Take `CCOC(=O)c1[nH]nc(-c2c(O)cc(C)cc2O)c1-c1csc(C)n1`: the EC50 in test [4] and in test [5] was > 112 µM (not active) each time.
For the compound `COc1ccc(-c2[nH]ncc2N=Nc2ccccc2)cc1`, the AC50 in test [2] was 3.81 µM (active).
As for `COc1ccc(NC2CCCN(C(=O)c3cc(C)nc4cc(F)ccc34)C2)cc1` (configuration not stated), in test [6], the IC50 was 120 µM (active).
Take `COc1ccc(-n2c(Cc3cccn3C)nnc2SCC(=O)Nc2cccc(Cl)c2)cc1`: the AC50 in test [2] was 125 µM (active).
Turning to `C=C1[C@@H](O)[C@@H]2O[C@]3(CC[C@H](/C=C/[C@@H](C)[C@@H]4CC(C)=CC5(O[C@H](C[C@@](C)(O)C(=O)OC)CC[C@H]5O)O4)O3)CC[C@H]2O[C@@H]1[C@@H](O)C[C@H](C)[C@H]1OC2(CCCCO2)CC[C@H]1C` (some centres not stated), the results for the AC50 (in the test on INS1; in test [2]) were < 0.195 µM (active) and < 0.16 µM (inconclusive), respectively.
Consider `Cc1ccc2oc(-c3ccc(NC(=O)c4cccnc4)cc3)nc2c1`, for which the EC50 in test [4] and in test [5] was > 112 µM (not active) in each case. For the same compound, the AC50 in the test on INS1 was 7.77 µM (active).
Take `C=CCN1C(=O)/C(=C/C=C2/N(CC)c3ccc(S(=O)(=O)N(C)C)cc3N2CC)SC1=S`: the IC50 at Nonstructural protein 1 is > 100 µM (active).
`Cc1cc(C(=O)N/N=C/c2cc(Br)cc(Br)c2OC(=O)c2cccc(F)c2)[nH]n1`: the EC50 was > 60 µM (inconclusive) in test [7]; 8.33 µM (active) in test [8]; 1.01 µM (active) in test [9]; 7.49 µM (active) in test [10]; 8.5 µM (active) in test [11]. The AC50 in the test with INS1 was 2.33 µM (active); in [2], 3.46 µM (active).
`COc1cccc(-c2ccc3c(c2)[C@H]2[C@H](CCN2C(=O)C2CCCC2)[C@H](CO)N3)c1`: the AC50 in test [3] was 7.06 µM (active).
Consider `CN1CC(=O)N(CC(=O)Nc2ccc(N(C)C)cc2)c2ccccc2C1=O`, for which the IC50 in test [6] is 56.7 µM (active).
Turning to `CS(=O)(=O)N1[C@H](C#N)[C@H](c2ccccc2-c2ccccc2)[C@H]1CO`, the AC50 in test [3] is > 36 µM (inactive).
On to `CCOC(=O)C1=C(C)NC(=O)NC1`, for which the EC50 is > 112 µM (not active) in [4] and 5.87 µM (active) in test [5].
`CC(C(=O)N1CCCc2ccccc21)N1CCN(c2ccccn2)CC1` (configuration not stated): the IC50 in test [6] was 93.9 µM (active).
As to `COc1ccc(NC(=O)c2ccc(OC(F)F)cc2)cc1Cl`, the EC50 in test [4] was 3.3 µM (active); in [5], 4.52 µM (active).
With `O=C(N/C(=C\c1ccc(O)cc1)C(=O)N1CCCCC1)c1ccccc1`, the IC50 in test [6] is 47.3 µM (active).
For the compound `CCn1c2ccccc2c2cc(NC(=O)c3cccc([N+](=O)[O-])c3)ccc21`, the AC50 in test [2] is 1.62 µM (active).
Consider `COc1ccc(C2=NN(c3ccccc3)C(=O)/C2=C\c2ccc(O)c(OC)c2)cc1`, for which the EC50 on Protein RecA was 1.42 µM (active). Moreover, in test [12], the AC50 is 2.29 µM (active). Also, the IC50 on Nonstructural protein 1 was 42.4 µM (active).

One may read the CC50 as the concentration at which the toxic effect on the cells reaches its halfway point. The AC50 is the concentration at which the activity in the assay is half-maximal. For orientation: EC50 means the concentration needed to bring the measured effect to its halfway point. A word on the IC50: it is the concentration that inhibits the measured activity by half.
